PubChem BioAssay (NCI)
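Dose response: 5 concentrations. Exposure: 48 h. Format: 96-well plates. Endpoint: linear interpolation; highest concentration if not reached. TGI marks complete inhibition of growth.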

How the values were obtained:
Test in all cases: NCI-60 cell line screen, 48 h
A498 renal = system: A498 renal
A549 NSCLC = system: A549 NSCLC
ACHN renal = system: ACHN renal
HCT-116 colon = system: HCT-116 colon
IGROV1 ovarian = system: IGROV1 ovarian
K-562 leukemia = system: K-562 leukemia
OVCAR-8 ovarian = system: OVCAR-8 ovarian
SF-295 CNS = system: SF-295 CNS
SNB-75 CNS = system: SNB-75 CNS
UACC-62 melanoma = system: UACC-62 melanoma

## NCCCN(CCCCN(CCCN)CCCc1ccccc1)CCCc1ccccc1
A498 renal
  TGI: 32.8 µM
A549 NSCLC
  TGI: 9.49 µM
ACHN renal
  TGI: 9.24 µM
HCT-116 colon
  TGI: 3.02 µM
IGROV1 ovarian
  TGI: 8.88 µM
K-562 leukemia
  TGI: 3.57 µM
OVCAR-8 ovarian
  TGI: 27 µM
SF-295 CNS
  TGI: 3.16 µM
SNB-75 CNS
  TGI: 5.04 µM
UACC-62 melanoma
  TGI: 3.28 µM

## COc1cc2c(oc(=O)c3c4occc4cc(OC)c23)c2cccc(O)c12
A498 renal
  TGI: > 100 µM
A549 NSCLC
  TGI: > 100 µM
ACHN renal
  TGI: > 100 µM
HCT-116 colon
  TGI: > 100 µM
IGROV1 ovarian
  TGI: > 100 µM
K-562 leukemia
  TGI: > 100 µM
OVCAR-8 ovarian
  TGI: > 100 µM
SF-295 CNS
  TGI: > 100 µM
SNB-75 CNS
  TGI: > 100 µM
UACC-62 melanoma
  TGI: > 100 µM

## ClC1=NSSC1(Cl)Cl
A498 renal
  TGI: > 100 µM
A549 NSCLC
  TGI: > 100 µM
ACHN renal
  TGI: 39.5 µM
HCT-116 colon
  TGI: > 100 µM
IGROV1 ovarian
  TGI: > 100 µM
K-562 leukemia
  TGI: 24 µM
OVCAR-8 ovarian
  TGI: 87.2 µM
SF-295 CNS
  TGI: > 100 µM
SNB-75 CNS
  TGI: > 100 µM
UACC-62 melanoma
  TGI: > 100 µM

## C/C(=C\C(=O)Nc1ccc2n[nH]nc2c1)Nc1ccc2n[nH]nc2c1
A498 renal
  TGI: > 100 µM
A549 NSCLC
  TGI: > 100 µM
ACHN renal
  TGI: > 100 µM
HCT-116 colon
  TGI: > 100 µM
IGROV1 ovarian
  TGI: > 100 µM
K-562 leukemia
  TGI: > 100 µM
OVCAR-8 ovarian
  TGI: > 100 µM
SF-295 CNS
  TGI: > 100 µM
SNB-75 CNS
  TGI: > 100 µM
UACC-62 melanoma
  TGI: > 100 µM

## Cc1ccc(/C=c2\cc3oc(=O)c4cccc(c4-3)c2=O)cc1
A498 renal
  TGI: > 100 µM
ACHN renal
  TGI: > 100 µM
HCT-116 colon
  TGI: > 100 µM
IGROV1 ovarian
  TGI: > 100 µM
K-562 leukemia
  TGI: > 100 µM
OVCAR-8 ovarian
  TGI: > 100 µM
SF-295 CNS
  TGI: > 100 µM
SNB-75 CNS
  TGI: > 100 µM
UACC-62 melanoma
  TGI: > 100 µM

## Cc1nn2c(=O)c([N+](=O)[O-])c(/C=C/c3ccc(F)cc3)nc2s1
A498 renal
  TGI: 35.6 µM
A549 NSCLC
  TGI: 24.3 µM
ACHN renal
  TGI: 20.6 µM
HCT-116 colon
  TGI: 15.1 µM
IGROV1 ovarian
  TGI: 22.6 µM
K-562 leukemia
  TGI: > 31.6 µM
OVCAR-8 ovarian
  TGI: 16 µM
SF-295 CNS
  TGI: 22.8 µM
SNB-75 CNS
  TGI: 31.3 µM
UACC-62 melanoma
  TGI: 17.5 µM

## CC1OC(OC2C(O)CC(OC3C(O)CC(OC4CCC5(C)C(CCC6C5CCC5(C)C(C7=CC(=O)OC7)C(O)CC65O)C4)OC3C)OC2C)CC(O)C1O (stereo unspecified)
A498 renal
  TGI: 0.908 µM
A549 NSCLC
  TGI: 0.0706 µM
ACHN renal
  TGI: 0.473 µM
HCT-116 colon
  TGI: 0.576 µM
IGROV1 ovarian
  TGI: 9.81 µM
K-562 leukemia
  TGI: > 100 µM
OVCAR-8 ovarian
  TGI: 0.813 µM
SF-295 CNS
  TGI: 0.809 µM
SNB-75 CNS
  TGI: 5.37 µM
UACC-62 melanoma
  TGI: 1.18 µM

## Nc1nc(Sc2ccc([N+](=O)[O-])c3nonc23)c2[nH]cnc2n1
A498 renal
  TGI: 13.8 µM
A549 NSCLC
  TGI: 25.1 µM
ACHN renal
  TGI: 10.4 µM
HCT-116 colon
  TGI: 3.89 µM
IGROV1 ovarian
  TGI: 17.1 µM
K-562 leukemia
  TGI: 2.41 µM
OVCAR-8 ovarian
  TGI: 9.7 µM
SF-295 CNS
  TGI: 16.1 µM
SNB-75 CNS
  TGI: 12.2 µM
UACC-62 melanoma
  TGI: 11.2 µM

## O=c1cc(NNc2cccc3ccccc23)[nH]c(=O)[nH]1
A498 renal
  TGI: 35.7 µM
A549 NSCLC
  TGI: 33.4 µM
ACHN renal
  TGI: 30.3 µM
HCT-116 colon
  TGI: 31.2 µM
IGROV1 ovarian
  TGI: 29.2 µM
K-562 leukemia
  TGI: > 100 µM
OVCAR-8 ovarian
  TGI: 36.8 µM
SF-295 CNS
  TGI: 31.4 µM
SNB-75 CNS
  TGI: 31.4 µM
UACC-62 melanoma
  TGI: 31.8 µM

## CCCOC(=O)c1cc(O)c(O)c(O)c1
A498 renal
  TGI: > 100 µM
A549 NSCLC
  TGI: > 100 µM
ACHN renal
  TGI: > 100 µM
HCT-116 colon
  TGI: 45.3 µM
IGROV1 ovarian
  TGI: > 100 µM
K-562 leukemia
  TGI: > 100 µM
OVCAR-8 ovarian
  TGI: > 100 µM
SF-295 CNS
  TGI: > 100 µM
SNB-75 CNS
  TGI: > 100 µM
UACC-62 melanoma
  TGI: > 100 µM

## COC(=O)[C@@H]1c2c(oc3cc(CO)cc(O)c3c2=O)C=C[C@H]1O
A498 renal
  TGI: 20 µM
A549 NSCLC
  TGI: 34.1 µM
HCT-116 colon
  TGI: 5.98 µM
IGROV1 ovarian
  TGI: 26.2 µM
K-562 leukemia
  TGI: > 100 µM
OVCAR-8 ovarian
  TGI: 21.7 µM
SF-295 CNS
  TGI: 35.7 µM
SNB-75 CNS
  TGI: 31.7 µM
UACC-62 melanoma
  TGI: 25 µM

## Clc1ccc(-c2cn3c(nc4ccccc43)c(-c3ccccc3)n2)cc1
A498 renal
  TGI: 54 µM
A549 NSCLC
  TGI: 51.4 µM
ACHN renal
  TGI: 95.9 µM
HCT-116 colon
  TGI: > 100 µM
IGROV1 ovarian
  TGI: > 78.3 µM
K-562 leukemia
  TGI: > 100 µM
OVCAR-8 ovarian
  TGI: 33 µM
SF-295 CNS
  TGI: 28.3 µM
SNB-75 CNS
  TGI: > 36.6 µM
UACC-62 melanoma
  TGI: 26.7 µM

## Cc1ccc(C)c2c1C1CCCCC3(OCCCO3)C21O (stereo unspecified)
A498 renal
  TGI: > 100 µM
A549 NSCLC
  TGI: > 100 µM
ACHN renal
  TGI: > 100 µM
HCT-116 colon
  TGI: > 100 µM
IGROV1 ovarian
  TGI: > 100 µM
K-562 leukemia
  TGI: > 100 µM
OVCAR-8 ovarian
  TGI: > 100 µM
SF-295 CNS
  TGI: > 100 µM
SNB-75 CNS
  TGI: > 100 µM
UACC-62 melanoma
  TGI: > 100 µM

## CO[C@@]12C[C@H](CNC(=O)c3ccc[nH]3)O[C@@H]1NC(=O)N2
A498 renal
  TGI: > 100 µM
A549 NSCLC
  TGI: > 100 µM
ACHN renal
  TGI: > 100 µM
HCT-116 colon
  TGI: > 100 µM
IGROV1 ovarian
  TGI: > 100 µM
K-562 leukemia
  TGI: > 100 µM
OVCAR-8 ovarian
  TGI: > 100 µM
SF-295 CNS
  TGI: > 100 µM
SNB-75 CNS
  TGI: > 100 µM
UACC-62 melanoma
  TGI: > 100 µM

## CCOC(=O)C(O)(CC1=NC(C(=O)OC)(C(=O)OC)C(c2cccc(C=O)c2)O1)C(=O)OCC (stereo unspecified)
A498 renal
  TGI: > 100 µM
A549 NSCLC
  TGI: > 100 µM
ACHN renal
  TGI: > 100 µM
HCT-116 colon
  TGI: > 100 µM
IGROV1 ovarian
  TGI: > 100 µM
K-562 leukemia
  TGI: > 100 µM
OVCAR-8 ovarian
  TGI: > 100 µM
SNB-75 CNS
  TGI: > 100 µM
UACC-62 melanoma
  TGI: > 100 µM

## COCN1C(=O)[C@@H]2CCCN2C(=O)c2ccc(N)cc21
A498 renal
  TGI: > 100 µM
A549 NSCLC
  TGI: > 100 µM
ACHN renal
  TGI: > 100 µM
HCT-116 colon
  TGI: > 100 µM
IGROV1 ovarian
  TGI: > 100 µM
K-562 leukemia
  TGI: > 100 µM
OVCAR-8 ovarian
  TGI: > 100 µM
SF-295 CNS
  TGI: > 100 µM
SNB-75 CNS
  TGI: > 100 µM
UACC-62 melanoma
  TGI: > 100 µM

## O=c1c(-c2nc3ccccc3c3ccccc3c2=O)nc2ccccc2c2ccccc12
A498 renal
  TGI: > 100 µM
A549 NSCLC
  TGI: > 100 µM
ACHN renal
  TGI: > 100 µM
HCT-116 colon
  TGI: 71.6 µM
IGROV1 ovarian
  TGI: > 100 µM
K-562 leukemia
  TGI: > 100 µM
OVCAR-8 ovarian
  TGI: > 100 µM
SF-295 CNS
  TGI: > 100 µM
SNB-75 CNS
  TGI: 94.9 µM
UACC-62 melanoma
  TGI: > 100 µM

## CC(=O)OCC1OC(OCCCOP(=O)(OCCC#N)OCC2OC(n3cnc4c(N)ncnc43)C(OC(=O)c3ccccc3)C2OC(=O)c2ccccc2)C(OC(C)=O)C(OC(C)=O)C1OC(C)=O (stereo unspecified)
A498 renal
  TGI: > 100 µM
A549 NSCLC
  TGI: > 100 µM
ACHN renal
  TGI: > 100 µM
HCT-116 colon
  TGI: > 100 µM
IGROV1 ovarian
  TGI: > 100 µM
K-562 leukemia
  TGI: > 100 µM
OVCAR-8 ovarian
  TGI: > 100 µM
SF-295 CNS
  TGI: > 100 µM
SNB-75 CNS
  TGI: > 100 µM
UACC-62 melanoma
  TGI: > 100 µM

## Cc1nc2ccc(NCCN(C)C)c3c(=O)c4ccccc4n1c23
A498 renal
  TGI: 12.1 µM
A549 NSCLC
  TGI: 6.42 µM
ACHN renal
  TGI: 22.3 µM
HCT-116 colon
  TGI: 13.8 µM
IGROV1 ovarian
  TGI: 16.6 µM
K-562 leukemia
  TGI: > 54.8 µM
OVCAR-8 ovarian
  TGI: 10.1 µM
SF-295 CNS
  TGI: 14.2 µM
SNB-75 CNS
  TGI: 17.8 µM
UACC-62 melanoma
  TGI: 20.2 µM

## CN(C)S(=O)(=O)c1ccc2[nH]c(O)c(C3=Nc4ccccc4C3=O)c2c1
A498 renal
  TGI: 97.4 µM
A549 NSCLC
  TGI: > 100 µM
ACHN renal
  TGI: 33.7 µM
HCT-116 colon
  TGI: 70.1 µM
IGROV1 ovarian
  TGI: 27.4 µM
K-562 leukemia
  TGI: > 100 µM
OVCAR-8 ovarian
  TGI: > 100 µM
SF-295 CNS
  TGI: 26.7 µM
SNB-75 CNS
  TGI: 10.3 µM
UACC-62 melanoma
  TGI: 34.9 µM

## CCOP1(=O)CC(C)=C(Cl)C(OC)C1 (stereo unspecified)
A498 renal
  TGI: > 100 µM
A549 NSCLC
  TGI: > 100 µM
ACHN renal
  TGI: > 100 µM
HCT-116 colon
  TGI: > 100 µM
IGROV1 ovarian
  TGI: > 100 µM
K-562 leukemia
  TGI: 77.3 µM
OVCAR-8 ovarian
  TGI: > 100 µM
SF-295 CNS
  TGI: > 100 µM
SNB-75 CNS
  TGI: > 100 µM
UACC-62 melanoma
  TGI: > 100 µM

## COc1ccc(-c2nc3ccccc3c(=O)[nH]2)cc1
A498 renal
  TGI: > 100 µM
A549 NSCLC
  TGI: > 100 µM
HCT-116 colon
  TGI: > 100 µM
IGROV1 ovarian
  TGI: > 100 µM
K-562 leukemia
  TGI: > 100 µM
OVCAR-8 ovarian
  TGI: > 100 µM
SF-295 CNS
  TGI: > 100 µM
SNB-75 CNS
  TGI: 84.9 µM
UACC-62 melanoma
  TGI: > 100 µM
